Results on 20 molecules are retold here after patent US9850247B2 (Almac Discovery Limited, priority 2013, dated 2017).

One series concerns the target T1, Wee-1 kinase (Homo sapiens, UniProt P30291).
T1 construct: purchased Invitrogen PV3817
The series is described as follows: Measurement of Wee-1 kinase activity (ADP-Glo luminescent kit). Format: biochemical. The procedure, abridged:
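ADP-Glo luminescence reads ADP made over 1 h at RT, after an aliquot of 30 μM ATP and 2.0 μg/mL poly(Lys,Tyr 4:1) substrate. Before that, the kinase sat 30 min with inhibitor in Tris-HCl/MgCl2 buffer with BSA and DTT. IC50 came from regression of percent inhibition.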

A short description of series [1]: CLint estimates using human liver microsomes (Method 4). Type of series: in vitro ADME. The conditions noted are these: pH 7.4, 1 μM compound, read-out: Mics - CLint (HLM CLint). The protocol: Method 4: Determination of CLint Estimates Using Human liver microsomes Test compounds (final concentration=1 μM; final DMSO concentration=0.1%) were incubated in 0.1 M phosphate buffer pH 7.4 with human liver microsomes (0.5 mg of protein/mL) at 37° C. Reactions were started by addition of NADPH in 0.1 M phosphate buffer pH 7.4 (final concentration 1 mM). 40 μL aliquots were removed at 2, 5, 10, 15, 20, 30, 40 and 50 min. Reactions were quenched in 80 μL of ice-cold methanol. Samples were subsequently frozen overnight then centrifuged at 3500 rpm for 20 min at 4° C. The supernatants were removed and transferred into analytical plates and analysed by LC/MS/MS. LC/MS/MS Method: All samples were analysed on a Waters Acquity I-Class coupled to a Waters Xevo TQD mass spectrometer. A Waters BEH C18 2.1×50 mm 1.7 μm column was used and mobile phases were water and methanol containing 0.1% formic acid as modifier. Analysis was by multiple reaction monitoring and conditions were optimised for each test compound. Data Analyses: From a plot of 1n peak area against time, the gradient of the line is determined. Subsequently, half-life and intrinsic clearance are calculated using the following equations. [formula] [formula] [formula] where V=Incubation volume (μL)/number of cells Method 5: Determination of Kinetic Solubility (in PBS Buffer)

T1 sequence (P30291 whole entry): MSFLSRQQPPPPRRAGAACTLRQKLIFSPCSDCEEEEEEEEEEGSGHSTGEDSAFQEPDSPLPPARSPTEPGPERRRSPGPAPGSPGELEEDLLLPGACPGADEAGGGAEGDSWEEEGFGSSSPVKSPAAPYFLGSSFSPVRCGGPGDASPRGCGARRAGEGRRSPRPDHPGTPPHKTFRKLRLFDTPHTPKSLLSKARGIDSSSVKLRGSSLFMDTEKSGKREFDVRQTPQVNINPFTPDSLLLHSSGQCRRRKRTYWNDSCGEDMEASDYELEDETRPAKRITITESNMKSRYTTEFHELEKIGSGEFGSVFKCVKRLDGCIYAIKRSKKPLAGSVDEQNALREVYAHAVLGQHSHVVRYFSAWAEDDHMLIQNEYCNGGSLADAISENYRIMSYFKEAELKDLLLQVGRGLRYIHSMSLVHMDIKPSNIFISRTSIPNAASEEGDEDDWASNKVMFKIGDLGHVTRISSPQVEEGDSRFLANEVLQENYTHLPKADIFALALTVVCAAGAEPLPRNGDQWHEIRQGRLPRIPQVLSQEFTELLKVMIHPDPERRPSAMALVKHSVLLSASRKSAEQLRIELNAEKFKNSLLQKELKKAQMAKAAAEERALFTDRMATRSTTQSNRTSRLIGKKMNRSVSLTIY

Regarding `COc1cc(Nc2ncc3c(n2)N(C)CN(c2c(Cl)cccc2Cl)C3=O)ccc1N1C[C@@H]2C[C@H]1CN2C` [Example 84, 3-(2,6-dichlorophenyl)-7-((3-methoxy-4-((1S,4S)-5-methyl-2,5-diazabicyclo[2.2.1]heptan-2-yl)phenyl)amino)-1-methyl-2,3-dihydropyrimido[4,5-d]pyrimidin-4(1H)-one], the half-inhibitory concentration (IC50) on Wee-1 kinase fell in the range of 0.01 to 0.1 µM. In addition, the microsomal CLint at 1 μM in series [1] is 15 to 50 µL/min/mg.
For the molecule `CNCc1cc(Nc2ncc3c(n2)N(C)CN(c2c(Cl)cccc2Cl)C3=O)ccc1F` [Example 152, 3-(2,6-dichlorophenyl)-7-((4-fluoro-3-((methylamino)methyl)phenyl)amino)-1-methyl-2,3-dihydropyrimido[4,5-d]pyrimidin-4(1H)-one], the half-maximal inhibitory concentration (IC50) on Wee-1 kinase was at least 0.1 µM. Besides, the microsomal CLint at 1 μM in series [1] is at most 15 µL/min/mg.
Regarding `COCc1cc(Nc2ncc3c(n2)N(C)CN(c2ccccc2Cl)C3=O)ccc1N1CCNCC1` [Example 108, 3-(2-chlorophenyl)-7-((3-(methoxymethyl)-4-(piperazin-1-yl)phenyl)amino)-1-methyl-2,3-dihydropyrimido[4,5-d]pyrimidin-4(1H)-one], at Wee-1 kinase, the concentration for half-maximal inhibition (IC50) is 0.01 to 0.1 µM. Also, the microsomal CLint at 1 μM in series [1] is at most 15 µL/min/mg.
For `COC[C@H]1CNCCN1c1ccc(Nc2ncc3c(n2)N(C)CN(c2c(Cl)cccc2Cl)C3=O)cc1` [Example 129, (R)-3-(2,6-dichlorophenyl)-7-((4-(2-(methoxymethyl)piperazin-1-yl)phenyl)amino)-1-methyl-2,3-dihydropyrimido[4,5-d]pyrimidin-4(1H)-one], the IC50 on Wee-1 kinase is at most 0.01 µM. Besides, the microsomal CLint at 1 μM in series [1] was at most 15 µL/min/mg.
For the molecule `CN1CN(c2c(Cl)cccc2Cl)C(=O)c2cnc(Nc3ccc(OC4CCNCC4)cc3)nc21` [Example 87, 3-(2,6-dichlorophenyl)-1-methyl-7-((4-(piperidin-4-yloxy)phenyl)amino)-2,3-dihydropyrimido[4,5-d]pyrimidin-4(1H)-one], the IC50 on Wee-1 kinase lay in the range of 0.01 to 0.1 µM. For the same molecule, in series [1], the microsomal CLint at 1 μM was at most 15 µL/min/mg.
Take `COC[C@@H]1CNCCN1c1ccc(Nc2ncc3c(n2)N(C)CN(c2c(Cl)cccc2Cl)C3=O)cc1` [Example 130, (S)-3-(2,6-dichlorophenyl)-7-((4-(2-(methoxymethyl)piperazin-1-yl)phenyl)amino)-1-methyl-2,3-dihydropyrimido[4,5-d]pyrimidin-4(1H)-one]: the IC50 at Wee-1 kinase fell in the range of 0.01 to 0.1 µM. In addition, the microsomal CLint at 1 μM in series [1] was 15 to 50 µL/min/mg.
The matching figures for `Cc1cc(Nc2ncc3c(n2)N(C)CN(c2c(C)cccc2Cl)C3=O)ccc1N1C[C@@H]2C[C@H]1CN2` [Example 112, 7-((4-((1S,4S)-2,5-diazabicyclo[2.2.1]heptan-2-yl)-3-methylphenyl)amino)-3-(2-chloro-6-methylphenyl)-1-methyl-2,3-dihydropyrimido[4,5-d]pyrimidin-4(1H)-one]: 0.01 to 0.1 µM and at most 15 µL/min/mg.
On the same counts, the results for `CNCc1cc(Nc2ncc3c(n2)N(C)CN(c2c(Cl)cccc2Cl)C3=O)ccc1Br` [Example 157, 7-((4-bromo-3-((methylamino)methyl)phenyl)amino)-3-(2,6-dichlorophenyl)-1-methyl-2,3-dihydropyrimido[4,5-d]pyrimidin-4(1H)-one] are 0.01 to 0.1 µM and at most 15 µL/min/mg.
In the case of `CN1CN(c2c(Cl)cccc2Cl)C(=O)c2cnc(Nc3ccc(N4CC5CNCC5C4)cc3)nc21` (stereo not shown) [Example 36, 3-(2,6-dichlorophenyl)-7-((4-(hexahydropyrrolo [3,4-c]pyrrol-2(1H)-yl)phenyl)amino)-1-methyl-2,3-dihydropyrimido[4,5-d]pyrimidin-4(1H)-one], the IC50 at Wee-1 kinase lay in the range of 0.01 to 0.1 µM. Also, in series [1], the microsomal CLint at 1 μM was 15 to 50 µL/min/mg.
On to `CN1CN(c2c(Cl)cccc2Cl)C(=O)c2cnc(Nc3ccc(C4CCNCC4)cc3)nc21` [Example 119, 3-(2,6-dichlorophenyl)-1-methyl-7-((4-(piperidin-4-yl)phenyl)amino)-2,3-dihydropyrimido[4,5-d]pyrimidin-4(1H)-one], for which, at Wee-1 kinase, the IC50 lay in the range of 0.01 to 0.1 µM. Moreover, in series [1], the microsomal CLint at 1 μM is at most 15 µL/min/mg.
The matching figures for `CNCc1cc(Nc2ncc3c(n2)N(C)CN(c2c(Cl)cccc2Cl)C3=O)ccc1N1CCCCC1` [Example 136, 3-(2,6-dichlorophenyl)-1-methyl-7-((3-((methylamino)methyl)-4-(piperidin-1-yl)phenyl)amino)-2,3-dihydropyrimido[4,5-d]pyrimidin-4(1H)-one]: 0.01 to 0.1 µM and at least 50 µL/min/mg.
Take `CN1CCC(Oc2ccc(Nc3ncc4c(n3)N(C)CN(c3c(Cl)cccc3Cl)C4=O)cc2)CC1` [Example 90, 3-(2,6-dichlorophenyl)-1-methyl-7-((4-((1-methylpiperidin-4-yl)oxy)phenyl)amino)-2,3-dihydropyrimido[4,5-d]pyrimidin-4(1H)-one]: the IC50 at Wee-1 kinase is 0.01 to 0.1 µM. The microsomal CLint at 1 μM in series [1] was 15 to 50 µL/min/mg.
With `Cc1cc(Nc2ncc3c(n2)N(C)CN(c2c(Cl)cccc2Cl)C3=O)ccc1N1C[C@@H]2C[C@H]1CN2` [Example 75, 7-((4-((1S,4S)-2,5-diazabicyclo[2.2.1]heptan-2-yl)-3-methylphenyl)amino)-3-(2,6-dichlorophenyl)-1-methyl-2,3-dihydropyrimido[4,5-d]pyrimidin-4(1H)-one], on Wee-1 kinase, the half-inhibitory concentration (IC50) is at most 0.01 µM. Besides, in series [1], the microsomal CLint at 1 μM is at most 15 µL/min/mg.
Regarding `CNCc1cc(Nc2ncc3c(n2)N(C)CN(c2c(Cl)cccc2Cl)C3=O)ccc1OC` [Example 159, 3-(2,6-dichlorophenyl)-7-((4-methoxy-3-((methylamino)methyl)phenyl)amino)-1-methyl-2,3-dihydropyrimido[4,5-d]pyrimidin-4(1H)-one], on Wee-1 kinase, the IC50 is 0.01 to 0.1 µM. Moreover, the microsomal CLint at 1 μM in series [1] is at most 15 µL/min/mg.
In the case of `C[C@@H]1CN(c2ccc(Nc3ncc4c(n3)N(C)CN(c3c(Cl)cccc3Cl)C4=O)c(F)c2)CCN1` [Example 142, (R)-3-(2,6-dichlorophenyl)-7-((2-fluoro-4-(3-methylpiperazin-1-yl)phenyl)amino)-1-methyl-2,3-dihydropyrimido[4,5-d]pyrimidin-4(1H)-one], the half-inhibitory concentration (IC50) at Wee-1 kinase is at least 0.1 µM. Moreover, the microsomal CLint at 1 μM in series [1] was 15 to 50 µL/min/mg.
On the same counts, the results for `C[C@@H]1CN(c2ccc(Nc3ncc4c(n3)N(c3ccn(C)n3)CN(c3c(Cl)cccc3Cl)C4=O)cc2)CCN1` [Example 58, (R)-3-(2,6-dichlorophenyl)-1-(1-methyl-1H-pyrazol-3-yl)-7-((4-(3-methylpiperazin-1-yl)phenyl)amino)-2,3-dihydropyrimido[4,5-d]pyrimidin-4(1H)-one] are at most 0.01 µM and at most 15 µL/min/mg.
On the same counts, the results for `CN1CN(c2c(Cl)cccc2Cl)C(=O)c2cnc(Nc3ccc(N4C[C@@H]5C[C@H]4CN5)cc3)nc21` [Example 39, 7-((4-((1S,4S)-2,5-diazabicyclo[2.2.1]heptan-2-yl)phenyl)amino)-3-(2,6-dichlorophenyl)-1-methyl-2,3-dihydropyrimido[4,5-d]pyrimidin-4(1H)-one] are 0.01 to 0.1 µM and at most 15 µL/min/mg.
Consider `CN1CN(c2c(Cl)cccc2Cl)C(=O)c2cnc(Nc3ccc(N4CCN[C@H](CO)C4)c(F)c3)nc21` [Example 48, (S)-3-(2,6-dichlorophenyl)-7-((3-fluoro-4-(3-(hydroxymethyl)piperazin-1-yl)phenyl)amino)-1-methyl-2,3-dihydropyrimido[4,5-d]pyrimidin-4(1H)-one], for which, on Wee-1 kinase, the IC50 lay in the range of 0.01 to 0.1 µM. The microsomal CLint at 1 μM in series [1] was at most 15 µL/min/mg.
Turning to `C[C@@H]1CN(c2ccc(Nc3ncc4c(n3)N(C)CN(c3c(Cl)cccc3Cl)C4=O)cc2C(F)F)CCN1` [Example 139, (R)-3-(2,6-dichlorophenyl)-7-((3-(difluoromethyl)-4-(3-methylpiperazin-1-yl)phenyl)amino)-1-methyl-2,3-dihydropyrimido[4,5-d]pyrimidin-4(1H)-one], the 50% inhibitory concentration (IC50) at Wee-1 kinase lay within 0.01 to 0.1 µM. Further, the microsomal CLint at 1 μM in series [1] is 15 to 50 µL/min/mg.
With `CN1CCC(Nc2cccc(Nc3ncc4c(n3)N(C)CN(c3c(Cl)cccc3Cl)C4=O)c2)CC1` [Example 91, 3-(2,6-dichlorophenyl)-1-methyl-7-((3-((1-methylpiperidin-4-yl)amino)phenyl)amino)-2,3-dihydropyrimido[4,5-d]pyrimidin-4(1H)-one], the IC50 on Wee-1 kinase fell in the range of 0.01 to 0.1 µM. For the same molecule, the microsomal CLint at 1 μM in series [1] is at most 15 µL/min/mg.
